Data from US20090023666A1, “Modulators of Hypoxia Inducible Factor-1 and Related Uses” (priority 2006, published 2009).

Columns and labels:
Na-K-ATPase [1] = assay: Na-K-ATPase enzyme assay (inorganic phosphate liberated from ATP), pig brain; assay type: biochemical; details: Pig brain; read-out: ATPase Inh, IC50 Pig brain
Protocol: (§1) Compounds were tested for their activity on Na-K-ATPase enzyme in an in vitro enzyme assay. The ATPase activity was assayed as the amount of inorganic phosphate liberated from ATP by Dog Kidney or Porcine cerebral cortex Na-K-ATPase.

[2] = system: 5-aminoimidazole-4-carbox-amide riboside (AICAR); assay: AICAR-RA reporter assay; assay type: cell-based; details: indicative of the inhibition of glucose metabolism, read-out: AICAR-RA ED50
Caki-1 (CAKI) = assay: cells; assay type: cell-based; details: Homo sapiens, CAKI-1, read-out: APA (Caki-1) IC50
Protocol: (§2) FIG. 8 is a graph depicting the mRNA levels of α-1 and α-3 isoforms quantitated by real time RT-PCR (TaqMan) using fluorescent labeled TaqMan probes. Anti-proliferation (IC50 values) activity of BNC4 on indicated cell lines was determined by MTS assay. Total alpha levels (al+a3) were plotted against (1/IC50) X100 values.

A549 = assay: cells; assay type: cell-based; details: Homo sapiens, A549, read-out: APA (A549) IC50
Protocol: as §2

Na-K-ATPase [3] = target: T1, Na-K-ATPase (Canis lupus familiaris, UniProt P50997); assay: Na-K-ATPase enzyme assay (inorganic phosphate liberated from ATP), dog kidney; assay type: biochemical
T1 construct: liberated from ATP by Dog Kidney or Porcine cerebral cortex Na-K-ATPase; from tissue; host or cells: dog kidney
Protocol: as §1

Panc-1 (PANC) = assay: Anti-proliferative activity (APA), Panc-1; assay type: cell-based; details: Homo sapiens, PANC-1, read-out: APA (Panc-1) IC50
Protocol: as §2

[4] = in vivo; cited from earlier work
A549 sentinel line = assay: Hypoxic stress response induced by cytotoxic agents in A549 sentinel line; assay type: cell-based; details: chemotherapeutic agent alone
Excerpt: FIGS. 7A-7E are graphs depicting the stress response of A549 Sentinel Line induced by treatment with Gemcitabine (FIG. 7A) or Gemcitabine in the presence of indicated compound (FIG. 7B-7D). Untreated (control) sample is shown in shadow. […] Similar results can be achieved for other chemotherapeutic agents which induce hypoxic stress, such as paclitaxel, carboplatin, and mitoxantrone.
Similar results were obtained with carboplatin (not shown).

Panc-1 tumors = assay: In vivo activity against Panc-1 human pancreatic xenograft; parameters: species or system nude mice; details: Gemcitabine 40 mg/kg q3d × 4
Protocol: Panc-1 tumors were injected subcutaneously (sc) into the flanks of male nude mice. After the tumors reached 60 mg in size, osmotic pumps (model 2002, Alzet Inc., flow rate 0.5 μl/hr) containing 15 mg/ml of BP244 were implanted sc on the opposite sides of the mice. The control animals received pumps containing vehicle (10% captisol, Cyclex Inc.). The mice treated with standard chemotherapy agent received intra-peritoneal injections of Gemcitabine at 40 mg/kg every 3 days for 4 treatments (q3d×4). The experiment was terminated when the control group tumor size reached an average of about 1 gram. Upon termination, the mice were weighed, sacrificed and their tumors excised. The tumors were weighed and the mean tumor weight per group was calculated.
A titration experiment was first performed on BP244 to determine its minimum effective dose against Panc-1 human pancreatic xenograft in nude mice. BP244 (sc, osmotic pumps) was first tested at 15, 10 and 5 mg/ml using Alzet pumps as in previous experiments. Gemcitabine (40 mg/kg; q3d×4, i.p.) was also included in the experiment as a comparison. […]

| SMILES | IC50 (Na-K-ATPase [1]) | EC50 [2] | IC50 (Caki-1 (CAKI)) | IC50 (A549) | further results |
| --- | --- | --- | --- | --- | --- |
| CC(=O)N1CCC(C(=O)O[C@@H]2C=C3CCC4C(CC[C@]5(C)[C@@H](c6ccc(=O)oc6)CC[C@]45O)[C@@]3(C)CC2)CC1 (some centres unmarked) | 396 nM | 133 nM | 342 nM | 15 nM | IC50 (Na-K-ATPase [3]): 270 nM |
| C[C@]12CC[C@H](OC(=O)C3CCNC3)C=C1CCC1C2CC[C@]2(C)[C@@H](c3ccc(=O)oc3)CC[C@]12O (some centres unmarked) | 480 nM | 210 nM | 112 nM | 48 nM | IC50 (Na-K-ATPase [3]): 299 nM |
| CC12CCC(OC(=O)C3CCNCC3)C=C1CCC1C2CCC2(C)C(c3ccc(=O)oc3)CCC12O (centres unmarked) | 136 nM | 101 nM | 120 nM | 20 nM |  |
| CC12CCC(OC(=O)c3ccc(C#N)cc3)C=C1CCC1C2CCC2(C)C(c3ccc(=O)oc3)CCC12O (centres unmarked) | 453 nM | 130 nM | 84 nM | 55 nM |  |
| CCNC(=O)O[C@@H]1C=C2CCC3C(CC[C@]4(C)[C@@H](c5ccc(=O)oc5)CC[C@]34O)[C@@]2(C)CC1 (some centres unmarked) | 210 nM | 75 nM | 82 nM | 35 nM | IC50 (Na-K-ATPase [3]): 220 nM |
| CC(C)(C)NC(=O)OC1C=C2CCC3C(CCC4(C)C(c5ccc(=O)oc5)CCC34O)C2(C)CC1 (centres unmarked) | 207 nM | 104 nM | 276 nM | 45 nM |  |
| CC12CCC(OC(=O)Nc3ccc(F)cc3)C=C1CCC1C2CCC2(C)C(c3ccc(=O)oc3)CCC12O (centres unmarked) | 277 nM | 100 nM | 142 nM | 23 nM |  |
| CCCCNC(=O)OC1C=C2CCC3C(CCC4(C)C(c5ccc(=O)oc5)CCC34O)C2(C)CC1 (centres unmarked) | 206 nM | 68 nM | 46 nM | 24 nM |  |
| CCCNC(=O)OC1C=C2CCC3C(CCC4(C)C(c5ccc(=O)oc5)CCC34O)C2(C)CC1 (centres unmarked) | 198 nM | 102 nM | 67 nM | 19 nM |  |
| CC12CCC(=NOCCN3CCCCC3)C=C1CCC1C2CCC2(C)C(c3ccc(=O)oc3)CCC12O (centres unmarked) | 164 nM |  | 27 nM | 7 nM | IC50 (Panc-1 (PANC)): 16 nM |
| CCON=C1C=C2CCC3C(CCC4(C)C(c5ccc(=O)oc5)CCC34O)C2(C)CC1 (centres unmarked) | 93 nM |  | 19 nM | 14 nM |  |
| C=CCON=C1C=C2CCC3C(CCC4(C)C(c5ccc(=O)oc5)CCC34O)C2(C)CC1 (centres unmarked) | 116 nM |  | 40 nM | 9 nM |  |
| CN(C)CCON=C1C=C2CCC3C(CCC4(C)C(c5ccc(=O)oc5)CCC34O)C2(C)CC1 (centres unmarked) | 85 nM |  | 24 nM | 2 nM |  |
| C[C@]12CCC(N)C=C1CCC1C2CC[C@]2(C)[C@@H](c3ccc(=O)oc3)CC[C@]12O (some centres unmarked) | 93 nM |  | 72 nM | 5 nM |  |
| COC1O[C@@H]2[C@@H](N)[C@H](C)OC(C[C@@H]3C=C4CCC5C(CC[C@]6(C)[C@@H](c7ccc(=O)oc7)CC[C@]56O)[C@@]4(C)CC3)[C@@H]2O1 (some centres unmarked) | 206 nM |  | 12 nM | 3 nM | IC50 (Panc-1 (PANC)): 11 nM |
| CN(C)CCN=C1CC[C@@]2(C)C(CCC3C2CC[C@]2(C)[C@@H](c4ccc(=O)oc4)CC[C@]32O)C1 (some centres unmarked) | 171 nM |  | 109 nM | 25 nM |  |
| C[C@]12CCC(NCCN3CCOCC3)CC1CCC1C2CC[C@]2(C)[C@@H](c3ccc(=O)oc3)CC[C@]12O (some centres unmarked) | 356 nM |  | 276 nM | 101 nM |  |
| C[C@@H]1OC(O[C@@H]2C=C3CCC4C(CC[C@]5(C)[C@@H](c6ccc(=O)oc6)CC[C@]45O)[C@@]3(C)CC2)[C@H](O)[C@H](O)[C@H]1N (some centres unmarked) | 540 nM |  | 56 nM | 7 nM | IC50 (Panc-1 (PANC)): 21 nM |
| CN(C)/N=C1/C=C2CCC3C(CC[C@]4(C)[C@@H](c5ccc(=O)oc5)CC[C@]34O)[C@@]2(C)CC1 (some centres unmarked) | 196 nM | 102 nM | 118 nM | 23 nM |  |
| COC1O[C@@H]2C(=O)[C@H](C)OC(O[C@@H]3C=C4CCC5C(CC[C@]6(C)[C@@H](c7ccc(=O)oc7)CC[C@]56O)[C@@]4(C)CC3)[C@@H]2O1 (some centres unmarked) | 169 nM |  | 26 nM |  |  |
| C[C@@H]1CC(O[C@@H]2C=C3CCC4C(CC[C@]5(C)[C@@H](c6ccc(=O)oc6)CC[C@]45O)[C@@]3(C)CC2)[C@H](O)[C@H](O)[C@@H]1O (some centres unmarked) | 129 nM |  | 24 nM | 9 nM |  |
| C[C@@H]1O[C@@H](O[C@H]2C[C@@H](O)[C@]3(CO)[C@H]4[C@H](O)C[C@]5(C)[C@@H](C6=CC(=O)OC6)CC[C@]5(O)[C@@H]4CC[C@]3(O)C2)[C@H](O)[C@H](O)[C@H]1O [BNC1, ouabain] |  |  |  |  | max. plasma concentration [4]: about 0.03 μg/mL |
| Nc1ccn([C@@H]2O[C@H](CO)[C@@H](O)C2(F)F)c(=O)n1 [Gemcitabine, reference compound] |  |  |  |  | hypoxic response visualized by A549 sentinel line (A549 sentinel line): further induce hypoxic response; % TGI (d24) (Panc-1 tumors): 65%; % Wt Change (d24) (Panc-1 tumors): 2.60%; Av. Tumor Weight (Panc-1 tumors): 414.3 mg |
